Reference: US20250034159A1, “INHIBITORS OF EPIDERMAL GROWTH FACTOR RECEPTOR” (ORIC Pharmaceuticals, Inc., priority 2021, published 2025)

Experiments:
[1] = target: recombinant human EGFR exon 19 deletion/C797S double mutant protein (Homo sapiens (Human), UniProt P00533, C797S/DEL746-750); assay: Biological Activity Assay C: biochemical assay against EGFR exon 19 deletion/C797S protein (EGFR d19/CS)
How it was run: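 IC50 values were fitted with a 4-parameter model to reaction slopes taken from 90 kinetic reads spaced 120 s apart. The Phosphosens sensor/ATP working solution was 40 uM/4 mM, and compound was dosed as 16-point dilutions at 2.5% final DMSO.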

[2] = tested on: Ba/F3_EGFR WT cells; assay: Biological Activity Assay D: BaF3 cell proliferation assay, EGFR wild-type (BaF3 WT); type: cell-based; conditions: Ba/F3 EGFR; Ba/F3_EGFR WT cells, ~72 hours, CellTiter-Glo; read-out: BaF3 WT IC50
[3] = tested on: BaF3_EGFR LR/CS cells; assay: Biological Activity Assay D: BaF3 cell proliferation assay, EGFR L858R/C797S mutant (BaF3 LR/CS); type: cell-based; conditions: Ba/F3 EGFR; BaF3_EGFR LR/CS cells, ~72 hours, CellTiter-Glo; read-out: BaF3 LR/CS IC50
[4] = tested on: BaF3_EGFR d19/CS cells; assay: Biological Activity Assay D: BaF3 cell proliferation assay, EGFR exon 19 deletion/C797S (BaF3 d19/CS); type: cell-based; conditions: Ba/F3 EGFR; BaF3_EGFR d19/CS cells, ~72 hours, CellTiter-Glo; read-out: BaF3 d19/CS IC50

Chain of recombinant human EGFR exon 19 deletion/C797S double mutant protein (P00533 other isoform, or with tags, fused parts or gaps C797S/del 1-668/del 746-750 limits assumed): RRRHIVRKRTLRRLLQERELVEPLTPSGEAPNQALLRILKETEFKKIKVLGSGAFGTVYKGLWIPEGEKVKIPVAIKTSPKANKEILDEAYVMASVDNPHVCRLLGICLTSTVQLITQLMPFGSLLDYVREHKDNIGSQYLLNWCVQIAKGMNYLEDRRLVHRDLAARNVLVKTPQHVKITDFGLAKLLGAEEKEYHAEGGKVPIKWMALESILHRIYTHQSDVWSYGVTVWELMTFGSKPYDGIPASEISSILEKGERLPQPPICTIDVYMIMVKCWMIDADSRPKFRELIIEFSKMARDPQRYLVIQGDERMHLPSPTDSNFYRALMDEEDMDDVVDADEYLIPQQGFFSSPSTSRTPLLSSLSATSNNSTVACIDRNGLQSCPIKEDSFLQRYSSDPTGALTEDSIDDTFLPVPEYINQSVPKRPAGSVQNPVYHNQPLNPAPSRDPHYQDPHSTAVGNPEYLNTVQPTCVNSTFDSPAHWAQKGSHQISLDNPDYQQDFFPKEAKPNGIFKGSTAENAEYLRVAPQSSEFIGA

| IC50 [1] | IC50 [2] | IC50 [3] | IC50 [4] | Structure (SMILES) |
| --- | --- | --- | --- | --- |
| 1.42 nM | 3320 nM | 42.2 nM | 69.9 nM | Fc1ccc(-c2nn([C@H]3C[C@@H](F)C3)cc2-c2ncnc3oc(-c4ccccc4)cc23)cc1 [Example 150, 4-{1-[(1s,3s)-3-fluorocyclobutyl]-3-(4-fluorophenyl)-1H-pyrazol-4-yl}-6-phenylfuro[2,3-d]pyrimidine] |
| 7.1 nM | 7550 nM | 2190 nM | 1190 nM | O=S1(=O)CC(n2cc(-c3ncnc4oc(C#CC5CNC5)cc34)c(-c3ccc(F)cc3)n2)C1 [Example 133, 3-[4-{6-[(azetidin-3-yl)ethynyl]furo[2,3-d]pyrimidin-4-yl}-3-(4-fluorophenyl)-1H-pyrazol-1-yl]-1λ6-thietane-1,1-dione] |
| 0.213 nM | 721 nM | 16.1 nM | 23.5 nM | Cn1cnc(-c2cc3c(-c4cn([C@H]5CC5(F)F)nc4-c4ccc(F)cc4)ncnc3o2)c1 (single isomer, unassigned) [Example 274] |
| 0.37 nM | 1200 nM | 93 nM | 87.8 nM | Cc1cc(-c2cc3c(-c4cn(C5CS(=O)(=O)C5)nc4-c4ccc(F)cc4)ncnc3o2)n(C)n1 [Example 243, 3-{4-[6-(1,3-dimethyl-1H-pyrazol-5-yl)furo[2,3-d]pyrimidin-4-yl]-3-(4-fluorophenyl)-1H-pyrazol-1-yl}-16-thietane-1,1-dione] |
| 0.5 nM | 1690 nM | 61.1 nM | 92.2 nM | Fc1ccc(-c2nn([C@H]3CCOC[C@H]3F)cc2-c2ncnc3oc(-c4ccccc4)cc23)cc1 (single isomer, unassigned) [Example 210] |
| 0.29 nM | 888 nM | 26.3 nM | 36.3 nM | O=S1(=O)CC(n2cc(-c3ncnc4oc(-c5cccnc5)cc34)c(-c3ccc(F)cc3)n2)C1 [Example 164, 3-{3-(4-fluorophenyl)-4-[6-(pyridin-3-yl)furo[2,3-d]pyrimidin-4-yl]-1H-pyrazol-1-yl}-1λ6-thietane-1,1-dione] |
| 0.203 nM | 1110 nM | 20.1 nM | 15.8 nM | COc1ncccc1-c1cc2c(-c3cn(CC(F)(F)CO)nc3-c3ccc(F)cc3)ncnc2o1 [Example 286, 2,2-difluoro-3-{3-(4-fluorophenyl)-4-[6-(2-methoxypyridin-3-yl)furo[2,3-d]pyrimidin-4-yl]-1H-pyrazol-1-yl}propan-1-ol] |
| 0.185 nM | 688 nM | 22.2 nM | 16 nM | Cn1ncc(-c2cc3c(-c4cn(CC(C)(C)O)nc4-c4ccc(F)cc4)ncnc3o2)c1C(F)F [Example 267, 1-[4-{6-[5-(difluoromethyl)-1-methyl-1H-pyrazol-4-yl]furo[2,3-d]pyrimidin-4-yl}-3-(4-fluorophenyl)-1H-pyrazol-1-yl]-2-methylpropan-2-ol] |
| 0.26 nM | 1770 nM | 30.7 nM | 57.6 nM | Fc1ccc(-c2nn([C@H]3CCOC[C@H]3F)cc2-c2ncnc3oc(-c4ccccc4)cc23)cc1 (racemic) [Example 184, 4-[1-(3-fluorooxan-4-yl)-3-(4-fluorophenyl)-1H-pyrazol-4-yl]-6-phenylfuro[2,3-d]pyrimidine] |
| 3.36 nM | 9020 nM | 1240 nM | 589 nM | O=S1(=O)CC(n2cc(-c3ncnc4oc(-c5cccnn5)cc34)c(-c3ccc(F)cc3)n2)C1 [Example 187, 3-{3-(4-fluorophenyl)-4-[6-(pyridazin-3-yl)furo[2,3-d]pyrimidin-4-yl]-1H-pyrazol-1-yl}-1λ6-thietane-1,1-dione] |
| 1.53 nM | 4370 nM | 221 nM | 200 nM | Fc1ccc(-c2nn([C@H]3C[C@H](F)C3)cc2-c2ncnc3oc(-c4ccccc4)cc23)cc1 [Example 219, 4-{1-[(1r,3r)-3-fluorocyclobutyl]-3-(4-fluorophenyl)-1H-pyrazol-4-yl}-6-phenylfuro[2,3-d]pyrimidine] |
| 0.11 nM | 442 nM | 3.05 nM | 5.01 nM | Cn1cnc(-c2cc3c(-c4cn(CC(C)(C)O)nc4-c4ccc(F)cc4)ncnc3o2)c1 [Example 254, 1-{3-(4-fluorophenyl)-4-[6-(1-methyl-1H-imidazol-4-yl)furo[2,3-d]pyrimidin-4-yl]-1H-pyrazol-1-yl}-2-methylpropan-2-ol] |
| 0.69 nM | 2500 nM | 40.5 nM | 71.3 nM | Fc1ccc(-c2nn([C@H]3CCCOC3)cc2-c2ncnc3oc(-c4ccccc4)cc23)cc1 (single isomer, unassigned) [Example 137] |
| 0.92 nM | 3340 nM | 85.4 nM | 294 nM | C[C@@H]1OCC[C@H]1n1cc(-c2ncnc3oc(-c4ccccc4)cc23)c(-c2ccc(F)cc2)n1 (racemic) [Example 199, 2,5-anhydro-1,3,4-trideoxy-3-[3-(4-fluorophenyl)-4-(6-phenylfuro[2,3-d]pyrimidin-4-yl)-1H-pyrazol-1-yl]pentitol] |
| 0.44 nM | 1940 nM | 296 nM | 160 nM | CC(=O)N1CCC=C(c2cc3c(-c4cn(C5CS(=O)(=O)C5)nc4-c4ccc(F)cc4)ncnc3o2)C1 [Example 209, 3-{4-[6-(1-acetyl-1,2,5,6-tetrahydropyridin-3-yl)furo[2,3-d]pyrimidin-4-yl]-3-(4-fluorophenyl)-1H-pyrazol-1-yl}-1λ6-thietane-1,1-dione] |
| 0.18 nM | 2160 nM | 64 nM | 59.1 nM | O=S1(=O)CC(n2cc(-c3ncnc4oc(-c5cccc(CN6CCOCC6)c5)cc34)c(-c3ccc(F)cc3)n2)C1 [Example 190, 3-[3-(4-fluorophenyl)-4-(6-{3-[(morpholin-4-yl)methyl]phenyl}furo[2,3-d]pyrimidin-4-yl)-1H-pyrazol-1-yl]-16-thietane-1,1-dione] |
| 0.12 nM | 2340 nM | 10.1 nM | 12 nM | CC(C)(O)Cn1cc(-c2ncnc3[nH]c(-c4ccccc4)nc23)c(-c2ccc(F)cc2)n1 [Example 130, 1-[3-(4-Fluorophenyl)-4-(8-phenyl-9H-purin-6-yl)-1H-pyrazol-1-yl]-2-methylpropan-2-ol] |
| 3.72 nM | 9070 nM | 770 nM | 491 nM | O=S1(=O)CC(n2cc(-c3ncnc4oc(-c5ccnnc5)cc34)c(-c3ccc(F)cc3)n2)C1 [Example 174, 3-{3-(4-fluorophenyl)-4-[6-(pyridazin-4-yl)furo[2,3-d]pyrimidin-4-yl]-1H-pyrazol-1-yl}-1λ6-thietane-1,1-dione] |
| 0.51 nM | 2610 nM | 80.9 nM | 168 nM | C[C@@H]1OCC[C@H]1n1cc(-c2ncnc3oc(-c4ccccc4)cc23)c(-c2ccc(F)cc2)n1 (single isomer, unassigned) [Example 213] |
| 1.86 nM | 10200 nM | 236 nM | 413 nM | CC1(C)C[C@@H](n2cc(-c3ncnc4oc(-c5ccccc5)cc34)c(-c3ccc(F)cc3)n2)CCO1 (single isomer, unassigned) [Example 226] |
| 3.32 nM | 5680 nM | 1630 nM | 916 nM | CC(=O)N1CC(C#Cc2cc3c(-c4cn(C5CS(=O)(=O)C5)nc4-c4ccc(F)cc4)ncnc3o2)C1 [Example 140, 3-[4-{6-[(1-Acetylazetidin-3-yl)ethynyl]furo[2,3-d]pyrimidin-4-yl}-3-(4-fluorophenyl)-1H-pyrazol-1-yl]-16-thietane-1,1-dione] |
| 0.23 nM | 301 nM | 9.42 nM | 9.99 nM | N#CCCc1cccc(-c2cc3c(-c4cn(C5CS(=O)(=O)C5)nc4-c4ccc(F)cc4)ncnc3o2)c1 [Example 232, 3-(3-{4-[1-(1,1-dioxo-1λ6-thietan-3-yl)-3-(4-fluorophenyl)-1H-pyrazol-4-yl]furo[2,3-d]pyrimidin-6-yl}phenyl)propanenitrile] |
| 0.29 nM | 1350 nM | 19.6 nM | 53.8 nM | CN1CC[C@@H](n2cc(-c3ncnc4oc(-c5ccccc5)cc34)c(-c3ccc(F)cc3)n2)C1=O (single isomer, unassigned) [Example 166] |
| 0.21 nM | 741 nM | 11.8 nM | 52.1 nM | O=S1(=O)CCC[C@H](Cn2cc(-c3ncnc4oc(-c5ccccc5)cc34)c(-c3ccc(F)cc3)n2)C1 (single isomer, unassigned) [Example 125] |
| 0.24 nM | 837 nM | 41.8 nM | 41.3 nM | O=S1(=O)CC(n2cc(-c3ncnc4oc(-c5ccsn5)cc34)c(-c3ccc(F)cc3)n2)C1 [Example 235, 3-{3-(4-fluorophenyl)-4-[6-(1,2-thiazol-3-yl)furo[2,3-d]pyrimidin-4-yl]-1H-pyrazol-1-yl}-1λ6-thietane-1,1-dione] |
| 0.31 nM | 1480 nM | 18.8 nM | 30.5 nM | FCCCn1cc(-c2ncnc3oc(-c4ccccc4)cc23)c(-c2ccc(F)cc2)n1 [Example 156, 4-[3-(4-fluorophenyl)-1-(3-fluoropropyl)-1H-pyrazol-4-yl]-6-phenylfuro[2,3-d]pyrimidine] |
